Reference: patent US8263606B2 (Xenon Pharmaceuticals Inc., priority 2008, dated 2012)

Key:
sodium channel = assay: Guanidine influx assay (14C-guanidine radiotracer flux, in vitro); assay type: cell-based, human or rat; settings: guanidine influx assay using a known cell line that expresses a sodium channel
In short: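 Aconitine holds channels open while 14C-guanidine enters human or rat sodium-channel-expressing cells in choline-substituted low-sodium saline, with test agent present at ambient temperature. Retained tracer is scintillation-counted and IC50 fitted by a four-parameter logistic model.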

[1] = test system: inactivated state of the channel of interest (sodium channel); assay: Electrophysiological assay (whole cell voltage clamp, in vitro); assay type: cell-based; settings: affinity for the inactivated state of the channel of interest
Experimental: Cells expressing the channel of interest are cultured in DMEM growth media (Gibco) with 0.5 mg/mL G418, +/−1% PSG, and 10% heat-inactivated fetal bovine serum at 37° C. and 5% CO2. For electrophysiological recordings, cells are plated on 10 mm dishes.
Whole cell recordings are examined by established methods of whole cell voltage clamp (Bean et al., op. cit.) using an Axopatch 200B amplifier and Clampex software (Axon Instruments, Union City, Calif.). All experiments are performed at ambient temperature. Electrodes are fire-polished to resistances of 2-4 Mohms Voltage errors and capacitance artifacts are minimized by series resistance compensation and capacitance compensation, respectively. Data are acquired at 40 kHz and filtered at 5 kHz. The external (bath) solution consists of: NaCl (140 mM), KCl (5 mM), CaCl2 (2 mM), MgCl2 (1 mM), HEPES (10 mM) at pH 7.4. The internal (pipette) solution consists of (in mM): NaCl (5), CaCl2 (0.1), MgCl2 (2), CsCl (10), CsF (120), HEPES (10), EGTA (10), at pH 7.2.
To estimate the steady-state affinity of compounds for the resting and inactivated state of the channel (Kr and Ki, respectively), 12.5 ms test pulses to depolarizing voltages from −60 to +90 mV from a holding potential of −120 m V is used to construct current-voltage relationships (I-V curves). A voltage near the peak of the IV-curve (−30 to 0 m V) is used as the test pulse throughout the remainder of the experiment. Steady-state inactivation (availability) curves are then constructed by measuring the current activated during a 8.75 ms test pulse following 1 second conditioning pulses to potentials ranging from −120 to −10 m V.
The steady-state voltage-dependence of binding of a compound to a sodium channel is determined by measuring the blockage of the ionic current at two holding potentials. Binding to rested-state channels is determined by using a holding potential of −120 mV, so that maximal availability is achieved. Binding to inactivated-state channels is evaluated at a holding potential such that only 10% of the channels are available to open. The membrane potential is held at this voltage for at least 10 seconds so that drug binding can equilibrate.
The apparent dissociation constant at each voltage is calculated with the equation:
[formula] where Kd is the dissociation constant (either Kr or Ki), and [Drug] is the concentration of the test compound.
The Example numbers provided in Table 3 correspond to the Examples herein: […]

CYP3A4 = CYP3A4 (Homo sapiens, UniProt P08684); assay: Cytochrome P450 (CYP450) Inhibition Assay, CYP3A4 (Vivid fluorescence, BOMCC substrate); settings: human, P450 Baculosomes (recombinant CYP3A4), probe BOMCC (Vivid substrate)
CYP3A4, sequence (P08684 whole entry): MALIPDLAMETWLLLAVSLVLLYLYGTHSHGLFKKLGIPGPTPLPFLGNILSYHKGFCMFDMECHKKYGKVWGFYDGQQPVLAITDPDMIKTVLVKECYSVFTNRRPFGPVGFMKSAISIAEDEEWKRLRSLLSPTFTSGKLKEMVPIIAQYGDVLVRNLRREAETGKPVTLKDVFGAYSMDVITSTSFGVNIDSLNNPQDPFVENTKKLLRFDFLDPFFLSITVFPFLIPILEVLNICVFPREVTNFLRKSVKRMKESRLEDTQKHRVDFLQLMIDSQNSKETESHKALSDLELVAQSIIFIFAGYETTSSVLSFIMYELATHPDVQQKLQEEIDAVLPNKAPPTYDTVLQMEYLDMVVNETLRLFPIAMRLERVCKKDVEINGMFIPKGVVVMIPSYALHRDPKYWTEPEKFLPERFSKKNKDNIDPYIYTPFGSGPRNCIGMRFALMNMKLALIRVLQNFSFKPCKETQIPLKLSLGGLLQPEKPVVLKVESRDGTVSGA

Cc1noc2cc3c(cc12)C1(CO3)C(=O)N(Cc2ccc(C(F)(F)F)o2)c2ccccc21 (stereo not drawn) [Example 9, 3-methyl-1′-{[5-(trifluoromethyl)furan-2-yl]methyl}spiro[furo[3,2-f][1,2]benzisoxazole-5,3′-indol]-2′(1′H)-one]
IC50 (sodium channel; activity level class): 1 to 100 nM | Ki [1]: < 300 nM | melting point: 111 to 112 °C | inhibition at 10 µM (CYP3A4): > 50%

COc1cc2c(cc1C)C1(CO2)C(=O)Nc2ccccc21 (stereo not drawn) [Example 3, 6-methoxy-5-methylspiro[1-benzofuran-3,3′-indol]-2′(1′H)-one]
IC50 (sodium channel; activity level class): 1000 to 10000 nM | Ki [1]: > 300 nM | melting point: > 250 °C | inhibition at 10 µM (CYP3A4): > 50%

O=C1N(Cc2cccnc2)c2ccccc2C12COc1cc3c(cc12)OCCO3 (stereo not drawn) [Example 1.2, 1-(pyridin-3-ylmethyl)-2,3-dihydrospiro[furo[2,3-g][1,4]benzodioxine-8,3′-indol]-2′(1′H)-one]
IC50 (sodium channel; activity level class): 1 to 100 nM | Ki [1]: > 300 nM | melting point: 142 to 143 °C | inhibition at 10 µM (CYP3A4): < 50%

O=C1N(Cc2ccc(O)cn2)c2ccccc2[C@]12COc1cc3c(cc12)OCCO3 [Example 1.13, (8S)-1′-[(5-hydroxypyridin-2-yl)methyl]-2,3-dihydrospiro[furo[2,3-g][1,4]benzodioxine-8,3′-indol]-2′(1′H)-one]
IC50 (sodium channel; activity level class): 100 to 1000 nM | Ki [1]: < 300 nM | melting point: 256 to 258 °C | inhibition at 10 µM (CYP3A4): < 50%

COCCOCCN1C(=O)C2(COc3cc4c(cc32)OCCO4)c2ccccc21 (stereo not drawn) [Example 9.20, 1′-[2-(2-methoxyethoxy)ethyl]-2,3-dihydrospiro[furo[2,3-g][1,4]benzodioxine-8,3′-indol]-2′(1′H)-one]
IC50 (sodium channel; activity level class): 1 to 100 nM | Ki [1]: < 300 nM | melting point: 90 to 91 °C | inhibition at 10 µM (CYP3A4): < 50%

O=C1N(Cc2ccccn2)c2ccccc2[C@]12COc1cc3c(cc12)CCO3 [Example 5.6, (3S)-1′-(pyridin-2-ylmethyl)-5,6-dihydrospiro[benzo[1,2-b:5,4-b′]difuran-3,3′-indol]-2′(1′H)-one]
IC50 (sodium channel; activity level class): 1 to 100 nM | Ki [1]: > 300 nM | melting point: 84 to 85 °C | inhibition at 10 µM (CYP3A4): < 50%

O=C1N(Cc2ccccn2)c2ccccc2[C@]12COc1cc3c(cc12)OCCO3 [Example 4.51, (S)-1′-(pyridin-2-ylmethyl)-2,3-dihydrospiro[furo[2,3-g][1,4]benzodioxine-8,3′-indol]-2′(1′H)-one]
IC50 (sodium channel; activity level class): 1 to 100 nM | Ki [1]: < 300 nM | melting point: 144 to 146 °C | inhibition at 10 µM (CYP3A4): < 50%

CC(C)CCN1C(=O)C2(COc3cc4c(cc32)OCCO4)c2ccccc21 (stereo not drawn) [Example 4.36, 1′-(3-methylbutyl)-2,3-dihydrospiro[furo[2,3-g][1,4]benzodioxine-8,3′-indol]-2′(1′H)-one]
IC50 (sodium channel; activity level class): 1 to 100 nM | Ki [1]: < 300 nM | melting point: 134 to 137 °C | inhibition at 10 µM (CYP3A4): < 50%

COc1ncc(CN2C(=O)[C@@]3(COc4cc5c(cc43)OCCO5)c3ccccc32)cn1 [Example 5.17, (8S)-1′-[(2-methoxypyrimidin-5-yl)methyl]-2,3-dihydrospiro[furo[2,3-g][1,4]benzodioxine-8,3′-indol]-2′(1′H)-one]
IC50 (sodium channel; activity level class): 1 to 100 nM | Ki [1]: < 300 nM | melting point: 102 to 104 °C | inhibition at 10 µM (CYP3A4): < 50%

N#Cc1cccc(CN2C(=O)C3(COc4cc5c(cc43)CCO5)c3ccccc32)c1 (stereo not drawn) [Example 4.22, 3-[(2′-oxo-5,6-dihydrospiro[benzo[1,2-b:5,4-b′]difuran-3,3′-indol]-1′(2′H)-yl)methyl]benzonitrile]
IC50 (sodium channel; activity level class): 1 to 100 nM | Ki [1]: > 300 nM | melting point: 187 to 193 °C | inhibition at 10 µM (CYP3A4): > 50%

O=C1N(CC2COCCO2)c2ccccc2C12COc1cc3c(cc12)OCCO3 (stereo not drawn) [Example 4.45, 1′-(1,4-dioxan-2-ylmethyl)-2,3-dihydrospiro[furo[2,3-g][1,4]benzodioxine-8,3′-indol]-2′(1′H)-one]
IC50 (sodium channel; activity level class): 1 to 100 nM | Ki [1]: > 300 nM | melting point: 160 to 165 °C | inhibition at 10 µM (CYP3A4): < 50%

COc1cc2c(cc1C#N)C1(CO2)C(=O)Nc2ccccc21 (stereo not drawn) [Example 3.29, 6-methoxy-2′-oxo-1′,2′-dihydrospiro[1-benzofuran-3,3′-indole]-5-carbonitrile]
IC50 (sodium channel; activity level class): 1000 to 10000 nM | Ki [1]: > 300 nM | melting point: 185 to 186 °C | inhibition at 10 µM (CYP3A4): < 50%

O=C1N(Cc2ccc(C(F)(F)F)o2)c2ccccc2[C@@]12COc1cc3c(cc12)OCCO3 [Example 4.49, (R)-1′-{[5-(trifluoromethyl)furan-2-yl]methyl}-2,3-dihydrospiro[furo[2,3-g][1,4]benzodioxine-8,3′-indol]-2′(1′H)-one]
IC50 (sodium channel; activity level class): 1 to 100 nM | Ki [1]: < 300 nM | melting point: 64 to 68 °C | inhibition at 10 µM (CYP3A4): > 50%

CCCCCN1C(=O)C2(COc3cc4c(cc32)OCCO4)c2ccccc21 (stereo not drawn) [Example 8.4, 1′-pentyl-2,3-dihydrospiro[furo[2,3-g][1,4]benzodioxine-8,3′-indol]-2′(1′H)-one]
IC50 (sodium channel; activity level class): 1 to 100 nM | Ki [1]: < 300 nM | melting point: 129 to 130 °C | inhibition at 10 µM (CYP3A4): > 50%

Cc1nc(-c2ccc(CN3C(=O)C4(COc5cc6c(cc54)CCO6)c4ccccc43)cc2)no1 (stereo not drawn) [Example 11.14, 1′-[4-(5-methyl-1,2,4-oxadiazol-3-yl)benzyl]-5,6-dihydrospiro[benzo[1,2-b:5,4-b′]difuran-3,3′-indol]-2′(1′H)-one]
IC50 (sodium channel): 1 to 100 nM | Ki [1]: < 300 nM | melting point: 185 to 186 °C | inhibition at 10 µM (CYP3A4): < 50%

O=C1N(Cc2ccc(C(F)(F)F)o2)c2ccccc2[C@]12COc1cc3c(cc12)CCO3 [Example 5.7, (3S)-1′-{[5-(trifluoromethyl)furan-2-yl]methyl}-5,6-dihydrospiro[benzo[1,2-b:5,4-b′]difuran-3,3′-indol]-2′(1′H)-one]
IC50 (sodium channel; activity level class): 1 to 100 nM | Ki [1]: < 300 nM | melting point: 64 to 65 °C | inhibition at 10 µM (CYP3A4): > 50%

O=C1N(C[C@@H]2CCCO2)c2ccccc2C12COc1cc3c(cc12)OCCO3 (stereo partly drawn) [Example 4.43, 1-[(2S)-tetrahydrofuran-2-ylmethyl]-2,3-dihydrospiro[furo[2,3-g][1,4]benzodioxine-8,3′-indol]-2′(1′H)-one]
IC50 (sodium channel; activity level class): 1 to 100 nM | Ki [1]: > 300 nM | melting point: 173 to 175 °C | inhibition at 10 µM (CYP3A4): < 50%

O=C1N(Cc2ccc(C(F)(F)F)o2)c2ccccc2[C@@]12COc1cc3c(cc12)CCO3 [Example 5.5, (3R)-1′-{[5-(trifluoromethyl)furan-2-yl]methyl}-5,6-dihydrospiro[benzo[1,2-b:5,4-b′]difuran-3,3′-indol]-2′(1′H)-one]
IC50 (sodium channel; activity level class): 1000 to 10000 nM | Ki [1]: > 300 nM | melting point: 68 to 70 °C | inhibition at 10 µM (CYP3A4): > 50%

O=C1N(C[C@H]2COCCO2)c2ccccc2[C@]12COc1cc3c(cc12)OCCO3 [Example 8.7, (8S)-1′-[(2S)-1,4-dioxan-2-ylmethyl]-2,3-dihydrospiro[furo[2,3-g][1,4]benzodioxine-8,3′-indol]-2′(1′H)-one]
IC50 (sodium channel; activity level class): 1 to 100 nM | Ki [1]: > 300 nM | melting point: 198 to 200 °C

O=C1N(CC2COCCO2)c2ccccc2C12COc1cc3c(cc12)CCO3 (stereo not drawn) [Example 4.8, 1′-(1,4-dioxan-2-ylmethyl)-5,6-dihydrospiro[benzo[1,2-b:5,4-b′]difuran-3,3′-indol]-2′(1′H)-one]
IC50 (sodium channel; activity level class): 1 to 100 nM | Ki [1]: > 300 nM | inhibition at 10 µM (CYP3A4): < 50%

O=C1N(CC2CCCOC2)c2ccccc2C12COc1cc3c(cc12)CCO3 (stereo not drawn) [Example 4.10, 1′-(tetrahydro-2H-pyran-3-ylmethyl)-5,6-dihydrospiro[benzo[1,2-b:5,4-b′]difuran-3,3′-indol]-2′(1′H)-one]
IC50 (sodium channel; activity level class): 1 to 100 nM | Ki [1]: > 300 nM | inhibition at 10 µM (CYP3A4): < 50%

O=C1N(CC2CCO2)c2ccccc2C12COc1cc3c(cc12)CCO3 (stereo not drawn) [Example 4.20, 1′-(oxetan-2-ylmethyl)-5,6-dihydrospiro[benzo[1,2-b:5,4-b′]difuran-3,3′-indol]-2′(1′H)-one]
IC50 (sodium channel; activity level class): 100 to 1000 nM | Ki [1]: > 300 nM | inhibition at 10 µM (CYP3A4): < 50%
